Measurements: patent US20210369803A1, “COMPOSITION CONTAINING SALVIA MILTIORRHIZA BUNGE EXTRACT AS ACTIVE INGREDIENT FOR TREATMENT OR PREVENTION OF BENIGN PROSTATIC HYPERPLASIA OR ALOPECIA” (CUROME BIOSCIENCES CO., LTD., priority 2019, published 2021)

Tests used:
[1] = system: 5α-reductase type 2 (5AR2); experiment: Western blot of 5AR2 expression in DHT-treated LNCaP cells; type: cell-based, human; conditions: 5 μM, DHT-induced LNCaP cells
Description: (§1) Animal cells were cultured to investigate the effect of the Salvia miltiorrhiza Bunge extract of the present invention on benign prostatic hyperplasia or alopecia. Human prostate adenocarcinoma cell line LNCaP cells sensitive to androgens were used as animal cells, and purchased from the Korean Cell Line Bank (Seoul, Korea, KCLB #:21740). The cells were cultured in Roswell Park Memorial Institute (RPMI) medium supplemented with […] penicillin/streptomycin and 10% fetal bovine serum (FBS), and maintained in a CO2 incubator at 37° C.
(§2) Goat anti-rabbit immunoglobulin G (IgG, 7074) and anti-mouse IgG (7076) were purchased from Cell Signaling (Danvers, Mass.). […]
(§3) The LNCaP cells were seeded onto 6-well plates (1×10^6 cells/well) in 2 mL of RPMI medium supplemented with 10% FBS, 100 U/mL penicillin, and […] streptomycin. […] The lysed cells were centrifuged at 13,000 RPM for 20 minutes at 4° C., and the protein concentration was determined using BCA assay. […] The chemiluminescent intensities of protein signals were quantified using ImageJ 1.47 v software, and the results are shown in FIG. 2. The data obtained by SPSS version 11.5 for Windows (SPSS Inc., Chicago, Ill., USA) were expressed as the means±standard errors of the means (SEM). […]

[2] = system: androgen receptor (AR); experiment: Western blot of AR expression in DHT-treated LNCaP cells; type: cell-based, human; conditions: 5 μM, same concentration as tanshinone2a, DHT-induced LNCaP cells
Description: as §1, §2, §3

[3] = system: steroid receptor coactivator-1 (SRC-1); experiment: Western blot of SRC-1 expression in DHT-treated LNCaP cells; type: cell-based, human; conditions: 5 μM, DHT-induced LNCaP cells
Description: as §1, §2, §3

[4] = system: prostate-specific antigen (PSA); experiment: Western blot of PSA expression in DHT-treated LNCaP cells; type: cell-based, human; conditions: 5 μM, same concentration as tanshinone2a, DHT-induced LNCaP cells
Description: as §1, §2, §3

[5] = system: androgen-related proteins; experiment: Overall effect on androgen-related proteins increased by DHT in LNCaP cells; type: cell-based, human; conditions: 5 μM, compared among tanshinone1, tanshinone2a, cryptotanshinone, 15,16-dihydrotanshinone
Description: as §1, §2, §3

[6] = system: cells; conditions: as reported by SHAN GAO, et al. (2019); cited from earlier work
[7] = Body weight in benign prostatic hyperplasia animal models; type: in vivo, Sprague-Dawley rats; conditions: BPH rats, oral once/day 14 days; extracts and saw palmetto 10-25 mg/kg, finasteride 10 mg/kg
Description: Sprague-Dawley rats aged 9 weeks (body weights of 350 g or less) were acclimated for one week or longer, and then used in tests. In order to induce benign prostatic hyperplasia, testicles were removed and then testosterone (dissolved in corn oil) was subcutaneously injected at a dose of 3 mg/kg once/three days for a total of 10 times. […] For the benign prostatic hyperplasia induction groups, testicles were removed and then […] (dissolved in corn oil) was subcutaneously injected at a dose of 3 mg/kg once/three days for a total of 10 times, by the same method as in Example 4.1. For the normal group, an equivalent amount of corn oil was subcutaneously injected. Salvia miltiorrhiza Bunge extracts T70 to T10 and saw palmetto fruit extract were dissolved in distilled water, and orally administered at a dose of 10-25 mg/kg once/day, for 14 days. For the finasteride administration group (Sigma, dissolved in 0.2% Tween 80), finasteride was orally administered at a dose of 10 mg/kg once/day for 14 days. For the negative control group, only distilled water was orally administered. The body weight was measured upon the end of the test, and on the next day after the ending of the last dosing and treatment, the SD-rats were sacrificed with carbon dioxide gas, and then the prostate tissue was extracted and the weight was measured. […]

Cc1cccc2c3c(ccc12)C1=C(C(=O)C3=O)[C@@H](C)CO1 [15,16-dihydrotanshinone, (1R)-1,6-dimethyl-1,2-dihydronaphtho[1,2-g][1]benzofuran-10,11-dione]
inhibition of 5AR2 expression [1]: more effectively than tanshinone2a
inhibition of AR expression relative to tanshinone2a [2]: at least 5 times
inhibition of SRC-1 expression [3]: more effectively than tanshinone2a
inhibition of PSA expression relative to tanshinone2a [4]: at least 5 times
inhibitory effect on androgen-related proteins increased by DHT [5]: most inhibitory effect

O=C(/C=C/c1ccc(O)c2c1[C@H](C(=O)O[C@H](Cc1ccc(O)c(O)c1)C(=O)O)[C@@H](c1ccc(O)c(O)c1)O2)O[C@H](Cc1ccc(O)c(O)c1)C(=O)O [salvianolic acid B]
cytotoxicity [6]: has cytotoxicity at a predetermined concentration

CC(C)(C)NC(=O)[C@H]1CC[C@H]2[C@@H]3CC[C@H]4NC(=O)C=C[C@]4(C)[C@H]3CC[C@]12C [finasteride]
body weight compared with control group (Con) [7]: no great difference
